# Patent US12264134B2 (Merck Sharp & Dohme LLC, priority 2018, dated 2025)
# Target: IDO1 (Homo sapiens, UniProt P14902)
# Test: IDO1 Cellular Assay in HeLa Cells Stimulated with IFNγ
# Assay type: cell-based
# Details: read-out: HeLa Cell Potency, IC50
# IDO1, sequence (P14902 whole entry): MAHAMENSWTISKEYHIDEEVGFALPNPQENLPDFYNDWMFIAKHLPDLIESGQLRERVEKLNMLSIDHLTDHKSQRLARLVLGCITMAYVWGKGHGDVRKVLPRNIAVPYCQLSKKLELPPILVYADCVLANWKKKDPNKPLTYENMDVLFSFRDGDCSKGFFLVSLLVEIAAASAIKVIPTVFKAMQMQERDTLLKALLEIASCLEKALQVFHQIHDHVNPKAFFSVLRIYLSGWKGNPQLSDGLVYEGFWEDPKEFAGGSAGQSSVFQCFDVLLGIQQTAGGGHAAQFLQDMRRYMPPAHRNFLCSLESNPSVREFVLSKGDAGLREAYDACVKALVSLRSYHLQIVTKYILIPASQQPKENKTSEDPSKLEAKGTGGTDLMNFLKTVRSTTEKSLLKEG
row,SMILES,IC50
1,"C[C@@H]1CN(C(=O)c2nn(CC(=O)N3CCN(c4cccc5c4cnn5C)CC3)c3c2CCC3)C[C@H](C)O1 [Example 79, 2-{3-[(2R,6S)-2,6-dimethylmorpholine-4-carbonyl]-5,6-dihydrocyclopenta[c]pyrazol-1(4H)-yl}-1-[4-(1-methyl-1H-indazol-4-yl)piperazin-1-yl]ethan-1-one]",83.1 nM
2,"Cc1cccc(N2CCN(C(=O)Cn3nc(C(=O)N4CCC5(CC4)CN(C)C(=O)O5)c4c3CCC4)CC2)c1C [Example 81, 8-(1-(2-(4-(2,3-dimethylphenyl)piperazin-1-yl)-2-oxoethyl)-1,4,5,6-tetrahydrocyclopenta[c]pyrazole-3-carbonyl)-3-methyl-1-oxa-3,8-diazaspiro[4.5]decan-2-one]",5.8 nM
3,"Cc1cccc(N2CCN(C(=O)Cn3nc(C(=O)N4CCC(C)(O)CC4)c4c3CCC4)CC2)c1C [Example 82, 1-[4-(2,3-dimethylphenyl)piperazin-1-yl]-2-[3-(4-hydroxy-4-methylpiperidine-1-carbonyl)-5,6-dihydrocyclopenta[c]pyrazol-1(4H)-yl]ethan-1-one]",2.75 nM
4,"Cc1cccc(N2CCN(C(=O)Cn3nc(C(=O)N4CCN(C(=O)CO)CC4)c4c3CCC4)CC2)c1C [Example 85, 1-[4-(2,3-dimethylphenyl)piperazin-1-yl]-2-{3-[4-(hydroxyacetyl)piperazine-1-carbonyl]-5,6-dihydrocyclopenta[c]pyrazol-1(4H)-yl}ethan-1-one]",26.5 nM
5,"Cc1cccc(N2CCN(C(=O)Cn3nc(C(=O)N4CC5CC4CC5O)c4c3CCC4)CC2)c1C (centres unmarked) [Example 96, 1-[4-(2,3-dimethylphenyl)piperazin-1-yl]-2-[3-(5-hydroxy-2-azabicyclo[2.2.1]heptane-2-carbonyl)-5,6-dihydrocyclopenta[c]pyrazol-1(4H)-yl]ethan-1-one]",13.2 nM
6,"Cc1cccc(N2CCN(C(=O)Cn3nc(C(=O)N4CC[C@H](O)[C@H](F)C4)c4c3CCC4)CC2)c1C [Example 97, 1-[4-(2,3-dimethylphenyl)piperazin-1-yl]-2-{3-[(3R,4S)-3-fluoro-4-hydroxypiperidine-1-carbonyl]-5,6-dihydrocyclopenta[c]pyrazol-1(4H)-yl}ethan-1-one]",17.1 nM
7,"Cc1cccc(N2CCN(C(=O)Cn3nc(C(=O)N4CC[C@H](O)[C@H](C)C4)c4c3CCC4)CC2)c1C [Example 99, 1-[4-(2,3-dimethylphenyl)piperazin-1-yl]-2-{3-[(3R,4S)-4-hydroxy-3-methylpiperidine-1-carbonyl]-5,6-dihydrocyclopenta[c]pyrazol-1(4H)-yl}ethan-1-one]",3.19 nM
8,"Cc1cccc(N2CCN(C(=O)Cn3nc(C(=O)N4CCC(F)(CO)CC4)c4c3CCC4)CC2)c1C [Example 102, 1-[4-(2,3-dimethylphenyl)piperazin-1-yl]-2-{3-[4-fluoro-4-(hydroxymethyl)piperidine-1-carbonyl]-5,6-dihydrocyclopenta[c]pyrazol-1(4H)-yl}ethan-1-one]",4.38 nM
9,"Cc1cccc(N2CCN(C(=O)Cn3nc(C(=O)N4CCOC(CO)C4)c4c3CCC4)CC2)c1C (centres unmarked) [Example 103, 1-[4-(2,3-dimethylphenyl)piperazin-1-yl]-2-{3-[2-(hydroxymethyl)morpholine-4-carbonyl]-5,6-dihydrocyclopenta[c]pyrazol-1(4H)-yl}ethan-1-one]",18.3 nM
10,"Cc1cccc(N2CCN(C(=O)Cn3nc(C(=O)N4CC[C@@H](O)[C@@H](O)C4)c4c3CCC4)CC2)c1C [Example 104, 2-{3-[(3S,4R)-3,4-dihydroxypiperidine-1-carbonyl]-5,6-dihydrocyclopenta[c]pyrazol-1(4H)-yl}-1-[4-(2,3-dimethylphenyl)piperazin-1-yl]ethan-1-one]",49.6 nM
11,"Cc1cccc(N2CCN(C(=O)Cn3nc(C(=O)N4CC5CCC4CO5)c4c3CCC4)CC2)c1C (centres unmarked) [Example 105, 1-[4-(2,3-dimethylphenyl)piperazin-1-yl]-2-[3-(2-oxa-5-azabicyclo[2.2.2]octane-5-carbonyl)-5,6-dihydrocyclopenta[c]pyrazol-1(4H)-yl]ethan-1-one]",34.5 nM
12,"Cc1cccc(N2CCN(C(=O)Cn3nc(C(=O)N4CCC5(CC4)CC5(F)F)c4c3CCC4)CC2)c1C [Example 110, 2-[3-(1,1-difluoro-6-azaspiro[2.5]octane-6-carbonyl)-5,6-dihydrocyclopenta[c]pyrazol-1(4H)-yl]-1-[4-(2,3-dimethylphenyl)piperazin-1-yl]ethan-1-one]",5.39 nM

# Next, values leading:
row,IC50,SMILES
1,439 nM,"C[C@@H]1CN(C(=O)c2nn(CC(=O)N3CCN(c4cc(F)ccc4F)CC3)c3c2CCC3)C[C@H](C)O1 [Example 76, 1-[4-(2,5-difluorophenyl)piperazin-1-yl]-2-{3-[(2R,6S)-2,6-dimethylmorpholine-4-carbonyl]-5,6-dihydrocyclopenta[c]pyrazol-1(4H)-yl}ethan-1-one]"
2,18.3 nM,"Cc1c(F)cccc1N1CCN(C(=O)Cn2nc(C(=O)N3C[C@@H](C)O[C@@H](C)C3)c3c2CCC3)CC1 [Example 77, 2-{3-[(2R,6S)-2,6-dimethylmorpholine-4-carbonyl]-5,6-dihydrocyclopenta[c]pyrazol-1(4H)-yl}-1-[4-(3-fluoro-2-methylphenyl)piperazin-1-yl]ethan-1-one]"
3,38.2 nM,"C[C@@H]1CN(C(=O)c2nn(CC(=O)N3CCN(c4cccc(Cl)c4F)CC3)c3c2CCC3)C[C@H](C)O1 [Example 78, 1-[4-(3-chloro-2-fluorophenyl)piperazin-1-yl]-2-{3-[(2R,6S)-2,6-dimethylmorpholine-4-carbonyl]-5,6-dihydrocyclopenta[c]pyrazol-1(4H)-yl}ethan-1-one]"
4,6.68 nM,"C[C@@H]1CN(C(=O)c2nn(CC(=O)N3CCN(c4cccc5c4CCC5)CC3)c3c2CCC3)C[C@H](C)O1 [Example 80, 1-[4-(2,3-dihydro-1H-inden-4-yl)piperazin-1-yl]-2-{3-[(2R,6S)-2,6-dimethylmorpholine-4-carbonyl]-5,6-dihydrocyclopenta[c]pyrazol-1(4H)-yl}ethan-1-one]"
5,15.6 nM,"Cc1cccc(N2CCN(C(=O)Cn3nc(C(=O)N4CCC(=O)N(C)CC4)c4c3CCC4)CC2)c1C [Example 84, 1-(1-{2-[4-(2,3-dimethylphenyl)piperazin-1-yl]-2-oxoethyl}-1,4,5,6-tetrahydrocyclopenta[c]pyrazole-3-carbonyl)-4-methyl-1,4-diazepan-5-one]"
6,4.12 nM,"COC(=O)N1CCN(C(=O)c2nn(CC(=O)N3CCN(c4cccc(C)c4C)CC3)c3c2CCC3)CC1 [Example 86, methyl 4-(1-{2-[4-(2,3-dimethylphenyl)piperazin-1-yl]-2-oxoethyl]-1,4,5,6-tetrahydrocyclopenta[c]pyrazole-3-carbonyl)piperazine-1-carboxylate]"
7,12.4 nM,"Cc1cccc(N2CCN(C(=O)Cn3nc(C(=O)N4CC[C@@H](O)[C@@H](F)C4)c4c3CCC4)CC2)c1C [Example 98, 1-[4-(2,3-dimethylphenyl)piperazin-1-yl]-2-{3-[(3S,4R)-3-fluoro-4-hydroxypiperidine-1-carbonyl]-5,6-dihydrocyclopenta[c]pyrazol-1(4H)-yl}ethan-1-one]"
8,10.7 nM,"Cc1cccc(N2CCN(C(=O)Cn3nc(C(=O)N4C[C@H]5CC[C@H](O)[C@H]5C4)c4c3CCC4)CC2)c1C [Example 100, 1-[4-(2,3-dimethylphenyl)piperazin-1-yl]-2-{3-[(3aR,4S,6aS)-4-hydroxyhexahydrocyclopenta[c]pyrrole-2(1H)-carbonyl]-5,6-dihydrocyclopenta[c]pyrazol-1(4H)-yl}ethan-1-one]"
